Ki data for 61 molecules are collected here from patent US20100022521A1, “COMPOUNDS” (Hansa Metallwerke AG, priority 2005, published 2010).

The assay has as its target mGluR5 (UniProt P31424). Nature of the assay: MGluR5 receptor binding test ([3H]-M-MPEP displacement). The conditions noted are these: radioligand [3H]-M-MPEP (2 nM); species not given; read-out: mGlu5 Ki. Set-up: species or system rat. On the procedure: MGluR5 Receptor Binding Tests
Rat cerebro-cortical membrane preparation was used to determine the binding characteristics of reference compounds and novel compounds to the rat mGluR5. The A18 cell line expressing hmGluR5a (purchased from Euroscreen) was used to determine binding characteristics of the chemical compounds to the human mGluR5a receptor. As radioligand [3H]-M-MPEP (2 nM) was used. The nonspecific binding was determined in the presence of 10 μM M-MPEP.
On to `O=S(=O)(c1ccc(Cl)cc1)c1sc2ncccc2c1N1CCC(O)CC1` [Compound 99], for which the inhibition constant Ki (commonly a measure of affinity in units of concentration, obtained from inhibition or displacement) was 500 to 1500 nM. In the case of `N#Cc1cc(F)cc(S(=O)(=O)c2sc3nc(Cl)ccc3c2-c2cccc(F)c2)c1` [Compound 138] it was less than 500 nM.

Turning to `COc1ccc(S(=O)(=O)c2sc3ncccc3c2NC(=O)N2CCC(C)CC2)cc1` [Compound 120, N-[2-(4-methoxy-benzenesulfonyl)-thieno[2,3b]pyridin-3-yl]-4-methyl-piperidine-1-carboxamide], the Ki is greater than 1500 nM. Regarding `N#Cc1cc(F)cc(S(=O)(=O)c2sc3ncccc3c2-c2ccc(F)cc2)c1` [Compound 30], the Ki was less than 500 nM. On to `Cc1cccc(S(=O)(=O)c2sc3nc(Cl)ccc3c2-c2ccc(Cl)cc2)c1` [Compound 50], for which the inhibitory constant (Ki) is less than 500 nM. The value for `Cc1ccc(S(=O)(=O)c2sc3ncccc3c2-c2ccc(Cl)cc2)cc1Cl` [Compound 63] was less than 500 nM. In the case of `O=S(=O)(c1ccccc1Cl)c1sc2ncccc2c1-c1ccc(Cl)cc1` [Compound 6] it was 500 to 1500 nM; in that of `Cc1ccc(S(=O)(=O)c2sc3ncccc3c2-c2ccc(Cl)cc2)cc1F` [Compound 39], less than 500 nM; in that of `N#Cc1cccc(-c2c(S(=O)(=O)c3cccc(C#N)c3)sc3ncccc23)c1` [Compound 66], less than 500 nM. For the molecule `Cc1ccc(S(=O)(=O)c2sc3ncccc3c2-c2ccc(F)cc2)cc1Cl` [Compound 23], the inhibition constant Ki was less than 500 nM.

`CC1CCN(c2c(S(=O)(=O)c3ccc(Cl)cc3)sc3nc(Cl)ccc23)CC1` [Compound 119]: the inhibition constant (Ki) was less than 500 nM.

On to `Nc1ccnc2sc(S(=O)(=O)c3ccc(Cl)cc3)c(-c3ccc(Cl)cc3)c12` [Compound 125, 4-Amino-2-(4-chloro-benzenesulfonyl)-3-(4-chloro-phenyl)-thieno[2,3-b]pyridine], for which the Ki is less than 500 nM. As for `CNC(=O)Nc1c(S(=O)(=O)c2ccc(OC)cc2)sc2ncccc12` [Compound 111], the inhibition constant (Ki) was greater than 1500 nM. `O=S(=O)(c1cccc(F)c1)c1sc2nc(Cl)ccc2c1-c1ccc(Cl)cc1` [Compound 76]: the Ki was 500 to 1500 nM.

With `Cc1cccc(S(=O)(=O)c2sc3ncccc3c2-c2ccc(Cl)cc2)c1` [Compound 22], the Ki was less than 500 nM. The value for `O=C(Nc1c(S(=O)(=O)c2ccc(Cl)cc2)sc2ncccc12)N1CCCCC1` [Compound 121] was greater than 1500 nM; that for `CC1CCN(c2c(S(=O)(=O)c3ccc(Cl)cc3)sc3ncc(O)cc23)CC1` [Compound 107] was less than 500 nM. In the case of `N#Cc1cc(F)cc(S(=O)(=O)c2sc3ncccc3c2-c2cccc(F)c2)c1` [Compound 110, 2-(3-Cyano-5-fluoro-benzenesulfonyl)-3-(3-fluoro-phenyl)-thieno[2,3-b]pyridine] it was less than 500 nM; in that of `CN(C)c1ccnc2sc(S(=O)(=O)c3ccc(Cl)cc3)c(-c3ccc(Cl)cc3)c12` [Compound 135, 2-(4-Chloro-benzenesulfonyl)-3-(4-chloro-phenyl)-4-dimethylamino-thieno[2,3-b]pyridine], 500 to 1500 nM; in that of `Nc1ccc2c(-c3ccc(Cl)cc3)c(S(=O)(=O)c3ccc(Cl)cc3)sc2n1` [Compound 49, 6-Amino-2-(4-chloro-benzenesulfonyl)-3-(4-chloro-phenyl)-thieno[2,3-b]pyridine], less than 500 nM.

Consider `O=S(=O)(c1ccc(Cl)cc1)c1sc2ncccc2c1N1CCOCC1` [Compound 46], for which the Ki was less than 500 nM. In the case of `O=S(=O)(c1ccc(Cl)cc1)c1sc2ncccc2c1-c1ccccc1F` [Compound 114] it was less than 500 nM; in that of `Cc1ccc(S(=O)(=O)c2sc3ncccc3c2-c2ccc(F)cc2)cc1C` [Compound 24], less than 500 nM; in that of `O=S(=O)(c1ccc(Cl)cc1)c1sc2nc(Cl)ccc2c1-c1ccc(Cl)cc1` [Compound 43, 6-chloro-2-(4-chloro-benzenesulfonyl)-3-(4-chloro-phenyl)-thieno[2,3-b]pyridine], less than 500 nM.

As to `Nc1cnc2sc(S(=O)(=O)c3ccc(Cl)cc3)c(-c3ccccc3F)c2c1` [Compound 131], the Ki was less than 500 nM. In the case of `CN(C)c1c(S(=O)(=O)c2ccc(Cl)cc2)sc2ncccc12` [Compound 100] it was less than 500 nM; in that of `O=S(=O)(c1ccc(Cl)cc1)c1sc2ncccc2c1N1CC[C@@H](F)C1` [Compound 141], less than 500 nM. `CC1CCN(c2c(S(=O)(=O)c3ccc(Cl)cc3)sc3ncc(N)cc23)CC1` [Compound 104, 5-Amino-2-(4-chloro-benzenesulfonyl)-3-(4-methyl-piperidine)-thieno[2,3-b]pyridine]: the Ki was less than 500 nM.

As to `O=S(=O)(c1ccc(Cl)cc1)c1sc2ncccc2c1-c1ccc(Cl)c(Cl)c1` [Compound 41], the inhibition constant Ki is less than 500 nM. As to `O=S(=O)(c1ccc(Cl)cc1)c1sc2ncccc2c1-c1cccc(Cl)c1` [Compound 60], the Ki was less than 500 nM. The value for `O=S(=O)(c1cc(F)cc(F)c1)c1sc2ncccc2c1-c1ccc(Cl)cc1` [Compound 87] was less than 500 nM; that for `CC1CCN(S(=O)(=O)c2sc3ncccc3c2-c2ccc(Cl)cc2)CC1` [Compound 20, 3-(4-Chlorophenyl)-2-(4-methyl-piperidine-1-sulfonyl)-thieno[2,3-b]pyridine] was 500 to 1500 nM; that for `Cc1ccc(S(=O)(=O)c2sc3ncccc3c2-c2ccc(Cl)cc2)cc1C` [Compound 62] was less than 500 nM. With `Cc1ccc(-c2c(S(=O)(=O)c3ccc(C)cc3)sc3ncccc23)cc1` [Compound 27], the Ki was less than 500 nM. The value for `CC1CCN(c2c(S(=O)(=O)c3ccc(Cl)cc3)sc3ncccc23)CC1` [Compound 94] was less than 500 nM; that for `N#Cc1cccc(S(=O)(=O)c2sc3ncccc3c2-c2ccc(F)cc2)c1` [Compound 29] was less than 500 nM; that for `O=[N+]([O-])c1cnc2sc(S(=O)(=O)c3ccc(Cl)cc3)c(-c3ccc(Cl)cc3)c2c1` [Compound 72, 2-(4-chloro-benzenesulfonyl)-3-(4-chloro-phenyl)-5-nitro-thieno[2,3-b]pyridine] was 500 to 1500 nM. The value for `O=S(=O)(c1ccc(Cl)cc1)c1sc2ncccc2c1N1CCCC1` [Compound 129] was less than 500 nM; that for `Cc1ccc(-c2c(S(=O)(=O)c3cccc(C)c3)sc3ncccc23)cc1` [Compound 26] was less than 500 nM; that for `O=S(=O)(c1ccc(Cl)cc1)c1sc2ncc(Cl)cc2c1-c1ccc(Cl)cc1` [Compound 97, 5-Chloro-2-(4-chloro-benzenesulfonyl)-3-(4-chloro-phenyl)-thieno[2,3-b]pyridine] was less than 500 nM. The value for `N#Cc1cccc(S(=O)(=O)c2sc3nc(Cl)ccc3c2-c2ccc(F)cc2)c1` [Compound 74] was less than 500 nM; that for `Cc1ccc(S(=O)(=O)c2sc3ncccc3c2-c2ccc(F)cc2)cc1` [Compound 55] was less than 500 nM; that for `N#CC1CCN(c2c(S(=O)(=O)c3ccc(Cl)cc3)sc3ncccc23)CC1` [Compound 93] was 500 to 1500 nM. Regarding `O=S(=O)(c1ccc(Br)cc1)c1sc2ncccc2c1-c1ccc(Cl)cc1` [Compound 25], the Ki is less than 500 nM. The value for `CN1CCN(c2c(S(=O)(=O)c3ccc(Cl)cc3)sc3ncccc23)CC1` [Compound 106] was less than 500 nM; that for `O=S(=O)(c1ccc(Cl)cc1)c1sc2ncccc2c1-c1ccccc1Cl` [Compound 113] was less than 500 nM; that for `Cc1cccc(S(=O)(=O)c2sc3ncccc3c2-c2ccc(F)cc2)c1` [Compound 61] was less than 500 nM. For `COc1ccc(S(=O)(=O)c2sc3ncccc3c2-c2cccc(F)c2)cc1F` [Compound 127], the inhibitory constant (Ki) was less than 500 nM. The value for `CN(C)c1ccc(S(=O)(=O)c2sc3nccc(N(C)C)c3c2-c2ccc(Cl)cc2)cc1` [Compound 124, 3-(4-chloro-phenyl)-4-dimethylamino-2-(4-dimethylamino-benzenesulfonyl)-thieno[2,3-b]pyridine] was greater than 1500 nM; that for `N#Cc1cc(F)cc(S(=O)(=O)c2sc3nc(Cl)ccc3c2-c2ccc(Cl)cc2)c1` [Compound 86, 2-(3-Cyano-5-fluoro-benzenesulfonyl)-3-(4-chloro-phenyl)-6-chloro-thieno[2,3-b]pyridine] was less than 500 nM; that for `O=S(=O)(c1ccc(Cl)cc1)c1sc2ncc(F)cc2c1-c1ccc(Cl)cc1` [Compound 123, 2-(4-Chloro-benzenesulfonyl)-3-(4-chloro-phenyl)-5-fluoro-thieno[2,3-b]pyridine] was less than 500 nM. In the case of `N#Cc1cccc(S(=O)(=O)c2sc3nc(Cl)ccc3c2-c2ccc(Cl)cc2)c1` [Compound 51] it was greater than 1500 nM.

As to `O=S(=O)(c1ccc(Cl)cc1)c1sc2ncccc2c1N1CCN(c2ccc(F)cc2)CC1` [Compound 118], the Ki is greater than 1500 nM.

Regarding `N#Cc1cccc(S(=O)(=O)c2sc3nc(F)ccc3c2-c2ccc(Cl)cc2)c1` [Compound 65], the inhibition constant Ki is less than 500 nM. In the case of `O=S(=O)(c1ccc(Cl)cc1)c1sc2ncccc2c1N1CCC(C(F)(F)F)CC1` [Compound 92] it was less than 500 nM; in that of `Cc1ccc(S(=O)(=O)c2sc3nc(Cl)ccc3c2-c2ccc(Cl)cc2)cc1F` [Compound 81], less than 500 nM; in that of `N#Cc1ccc(-c2c(S(=O)(=O)c3cccc(C#N)c3)sc3ncccc23)cc1` [Compound 69], less than 500 nM. As to `COc1ccc2c(-c3ccc(Cl)cc3)c(S(=O)(=O)c3cccc(C#N)c3)sc2n1` [Compound 64, 2-(3-Cyano-benzenesulfonyl)-3-(4-chloro-phenyl)-6-methoxy-thieno[2,3-b]pyridine], the inhibitory constant (Ki) was less than 500 nM. In the case of `O=S(=O)(c1cccc(Cl)c1)c1sc2ncccc2c1-c1ccc(F)cc1` [Compound 54] it was less than 500 nM; in that of `CC1CCCN(c2c(S(=O)(=O)c3cccc(C#N)c3)sc3ncccc23)C1` (stereo not shown) [Compound 32], less than 500 nM. With `N#Cc1cc(F)cc(S(=O)(=O)c2sc3ncccc3c2-c2ccccc2F)c1` [Compound 132], the Ki was less than 500 nM.
